Laboratory results reported in patent US20220287938A1, “COSMETIC COMPOSITION COMPRISING EUTECTIC MIXTURE” (LG HOUSEHOLD & HEALTH CARE LTD., priority 2019, published 2022).

Tests used:
[1] = tested on: human fibroblasts; assay: Total amount of collagen produced (PICP EIA kit); type: cell-based; conditions: for Average absorbance: 450 nm, number of repeats=3; for Collagen increase rate (%): relative to control (no additive)
Protocol: The total amount of collagen was quantified using a PICP kit (Procollagen Type I C-Peptide Enzyme ImmunoAssay KIT).
Specifically, after each sample was added to the culture medium of human fibroblasts and cultured for 1 day, the culture medium was taken, and a degree of increase in the total amount of collagen at each concentration was measured at 450 nm using a spectrophotometer with the PICP EIA kit.

[2] = Skin permeability on pig skin (serine quantified by liquid chromatography); type: in vitro ADME; conditions: pH 6.0 (mixtures adjusted to weakly acidic using citric acid); serine 5 parts by weight
Protocol: 10 μg of each of the aqueous solutions of Comparative Examples 1 and 2 and Example 1 were prepared and applied to pig skin having a uniform area. A tissue soaked with phosphate buffered saline (PBS) was placed on a 6-well plate and stored with the pig skin placed on the tissue under conditions of a temperature of 37° C. and a humidity of 50% for 12 hours. Then, the sample that could not penetrate the skin was removed using a cotton swab and a keratin tape, and the weight of the pig skin was measured. After the pig skin was crushed using a homogenizer, the amino acid and the eutectic mixture in the sample were sufficiently dissolved by adding 1 ml of water thereto, and then the resulting solution was centrifuged at 12,000 rpm for 10 minutes. After centrifugation, 0.5 ml of the supernatant was collected, and the serine concentration of the sample, which would be the amount permeated through the skin, was quantified using liquid chromatography with standard samples, and then transmittance was obtained by dividing the quantified concentration by the weight of the pig skin and comparing this to the initially introduced serine mass, as serine amount per gram of the tissue. The results of the skin permeability are illustrated in FIG. 2.
The skin permeability of the eutectic mixture prepared in Experimental Example 12 was confirmed. […]

[3] = tested on: back skin of a pig; assay: Keratin exfoliation effect on pig back skin (exfoliated keratin counted with cell counter)
Protocol: In order to confirm the keratin exfoliation effect of the aqueous eutectic mixture solution by the serine concentration of Example 2, the back skin of a pig was treated with the aqueous solution. Specifically, a 6-mm diameter sample with a thickness of 1 mm was taken from the back skin of the pig using a biopsy tool. After the sample was placed on a 96-well plate and washed once with phosphate buffered saline (PBS), 100 μl of the aqueous eutectic mixture solution of Example 2 was added thereto. In this case, to compare the keratin exfoliation effects, 100 μl of Comparative Example 4, a solution containing serine and malic acid, was added to the back skin of a pig in the same manner as described above. After the pig's back skin sample treated with each aqueous solution was stored under conditions of a temperature of 37° C. and humidity of 50% for 16 hours, the keratin exfoliation effect was confirmed by measuring the number of exfoliated keratin with a cell counter. In this case, a sample to which water was added was used as a negative control, a sample to which 10% gluconolactone (polyhydroxy acid, PHA) with a pH of 4, which is a known keratin exfoliating substance, was added was used as a first positive control, and a sample to which 10% gluconolactone with a pH of 6 was added was used as a second positive control. In the case of the second positive control, the keratin exfoliation effect was evaluated based on the condition that the efficacy was 15 to 20% compared to the first positive control. Here, the first positive control is applied as a reference for comparing the values between the actual experimental examples, and a relative keratin exfoliation value (%) was calculated and described as [(result value of sample)/(value of first positive control group)×100]. […]
Furthermore, it was confirmed whether the eutectic mixture was dissociated by observing the properties of a cosmetic (essence) including the eutectic mixture of Example 12, which was allowed to stand under separation conditions of the eutectic composition (Table 27) and confirming changes in melting point through measurement by differential scanning calorimetry (DSC) (Table 28) and the keratin exfoliation effect (Table 29), of the cosmetic. […] The melting point is expressed as a heat flow with respect to the sample in the DSC, and its accuracy is known to be 0.01° C. The melting point was measured in a pure nitrogen atmosphere, nitrogen was fed into a measuring chamber at a rate of 20 cc/min in order to maintain the nitrogen atmosphere, and the temperature of the chamber was set so as to increase by 10° C. per minute. The mass of the measured sample was confirmed by subtracting the weight of a pan for accommodating the sample in the DSC from the weight including the entire sample. […]

[4] = tested on: HaCaT cells; assay: Scratch wound healing (skin regeneration promotion); type: cell-based, human
Protocol: HaCaT cells, which are a human-derived keratinocyte cell line, were cultured under conditions of 37° C. and 5% CO2 using a DMEM medium (ADDEXBIO TECHNOLOGIES, San Diego, Calif., USA) supplemented with 10% fetal bovine serum (Gibco, Waltham, Mass., USA), […] and […]. After the cultured cells were seeded into a 24-well plate so as to have 2.0×10^5 cells per well, and then cultured for 24 hours, the cells were washed once with PBS, and scratches having a perpendicular line shape were created on the center of the plate by scraping the cells with a 200 μl pipet tip. The cells were washed twice with PBS to remove the dropped cell debris, and the medium was replaced with a […] DMEM containing each test material. In order to always capture the same part when the cells were photographed, the center of the well was marked with a fine marker and the cell photograph of the marked part was taken at the same time at the start of the experiment (0 hours). The cell photographs after 2, 4 and 24 hours were also taken in the same way. After a scratch area created on monolayer cells was measured from the photographs after 0 hours and 24 hours using an image analysis program (Image J), the area filled with the scratch area was shown as a wound healing percentage (%) according to the following General Formula 1.

## TGF-β
[1]; 10 ng/ml (positive control)
  Average absorbance: 2.335
  Collagen increase rate (%): 14.7%

## N[C@@H](CO)C(=O)O [Serine, serine]
[2]
  Skin permeability relative value (Maximum value converted to 100%): 71.7%

## O=C1O[C@H](CO)[C@@H](O)[C@H](O)[C@H]1O [PHA, gluconolactone]
[3]; pH 4.0, 10% gluconolactone, first positive control (reference = 100)
  Keratin exfoliation relative value (%): 100%
[3]; pH 4.0, first positive control (reference = 100)
  Keratin exfoliation relative value (%): 100%
[3]; pH 6.0 (mixtures adjusted to weakly acidic using citric acid)
  Keratin exfoliation relative value (%): 25.5%
[3]; pH 6.0, 10% gluconolactone, second positive control
  Keratin exfoliation relative value (%): 18.8%

## N=C(N)NCCC[C@H](N)C(=O)O [Arg, arginine]
[4]; 10 ppm (mixtures based on the concentration of arginine)
  Wound healing percentage (%) after 24 hours: 73.5%
[1]; 10 ppm, cultured for 1 day
  Average absorbance: 2.429
[1]; 10 ppm
  Collagen increase rate (%): 19.3%

## N[C@@H](CCC(=O)O)C(=O)O [Glu, glutamic acid]
[4]; 1 ppm
  Wound healing percentage (%) after 24 hours: 70.1%
[1]; 10 ppm, cultured for 1 day
  Average absorbance: 2.240
[1]; 10 ppm
  Collagen increase rate (%): 10.0%
